Entries after “also recorded” stand apart in the source; their conditions may differ.
What was measured:
Type in all cases: cell-based
[1] = tested on: zebrafish PPARγ; assay: Transient transactivation assay in HeLa cells, GAL4-zebrafish PPARγ LBD; settings: 10 μM TBBPA, TCBPA, MEHP, 1 μM rosiglitazone
[2] = tested on: 3T3L1 preadipocytes; assay: 3T3L1 preadipocyte differentiation (Oil Red O staining); settings: for induction of adipogenesis (Oil Red O staining): 8-day treatment with 10 μg/mL insulin and ligand, TCBPA and TBBPA at 10 μM
Procedure: NIH3T3-L1 differentiation. Two-day postconfluent 3T3L1 preadipocytes (a gift from L. Fajas; Institut de Génétique Moléculaire, Montpellier, France) were induced to differentiate by 2-day treatment with a differentiation mixture (10 μg/mL insulin, 1 μM dexamethasone, 0.5 mM isobutylmethylxanthine) followed by 8-day treatment with 10 μg/mL insulin and PPARγ ligands. The medium was replaced every 48 hr. After differentiation, cells were stained with Oil Red O for morphological analyses, or RNA was extracted from the cells using the RNeasy RNA isolation kit (Qiagen, Courtaboeuf, France). For RNA extractions, four independent cultures were performed per condition. Reverse transcription was performed with random hexamers on 1 μg total RNA using SuperScript II reverse transcriptase (Invitrogen), and the reaction was diluted 100 times for amplification. Real-time polymerase chain reaction (PCR) quantification was then performed using SYBR Green technology (LightCycler; Roche Diagnostics, Meylan, France). Results were normalized to two housekeeping genes (18S and 36B4) and quantified using qBase (Roche Diagnostics).
Two-day postconfluent 3T3L1 cells were treated for 8 days with 10 μg/mL insulin with vehicle (0.1% DMSO) or the ligands as indicated. Rosi, rosiglitazone. (A) Entire wells imaged after Oil Red O staining. (B) Quantitative real-time PCR of PPARγ and adipocyte-specific fatty acid–binding protein AP2 expression levels in postconfluent 3T3-L1 cells treated with the ligands for 24 hr. Data were normalized to 18S or 36B4 controls and plotted as average fold induction ± SE (n = 3 per treatment).

[3] = biological target: T1, PPARγ (Homo sapiens, UniProt P37231); assay: Transient transactivation assay in HeLa cells, GAL4-hPPARγ; settings: 10 μM TBBPA, TCBPA, MEHP
T1 sequence (P37231 238-505 limits assumed): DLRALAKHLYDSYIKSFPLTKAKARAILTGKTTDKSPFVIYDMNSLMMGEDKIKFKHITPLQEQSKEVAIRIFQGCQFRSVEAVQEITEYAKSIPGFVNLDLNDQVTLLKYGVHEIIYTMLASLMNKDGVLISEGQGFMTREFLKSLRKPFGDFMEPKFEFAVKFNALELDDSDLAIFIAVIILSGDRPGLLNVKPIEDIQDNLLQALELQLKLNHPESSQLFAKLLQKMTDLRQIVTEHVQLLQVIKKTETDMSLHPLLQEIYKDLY

[4] = biological target: T2, ERβ (Homo sapiens, UniProt Q92731); assay: HGELN-ERβ stable reporter cell luciferase assay; settings: for agonistic activity toward ERβ (luciferase): HGELN-ERβ cells, relative to 10 nM E2; for ranking order of estrogenic potency, ERβ: HELN-ERβ cell line
T2 construct: expressed in transfected cells; host or cells: HGELN (HeLa-derived) cells, stably transfected
Procedure: (§1) Reporter cell lines and stable gene expression assay. […] Briefly, reporter cells were seeded at a density of 20,000 cells/well in 96-well white opaque tissue culture plates and maintained in phenol-red–free Dulbecco’s modiﬁed Eagle’s medium (DMEM) supplemented with 5% dextran-coated, charcoal-treated fetal calf serum. Twenty-four hours later, culture medium was replaced with DMEM containing tested compounds. We performed assays in the absence of serum to avoid ligand capture by serum proteins. Sixteen hours after exposure, we replaced media with media containing 0.3 mM luciferin. Luminescence was measured in intact living cells for 2 sec in a Microbeta Wallac luminometer (PerkinElmer).

[5] = tested on: PPARγ target genes (AP2, PPARγ) in 3T3-L1 cells; assay: Real-time PCR of PPARγ target genes in 3T3-L1 cells
Procedure: Two-day postconfluent 3T3L1 preadipocytes (a gift from L. Fajas; Institut de Génétique Moléculaire, Montpellier, France) were induced to differentiate by 2-day treatment with a differentiation mixture (10 μg/mL insulin, 1 μM dexamethasone, 0.5 mM isobutylmethylxanthine) followed by 8-day treatment with 10 μg/mL insulin and PPARγ ligands. […] After differentiation, cells were stained with Oil Red O for morphological analyses, or RNA was extracted from the cells using the RNeasy RNA isolation kit (Qiagen, Courtaboeuf, France). […] Reverse transcription was performed with random hexamers on 1 μg total RNA using SuperScript II reverse transcriptase (Invitrogen), and the reaction was diluted 100 times for amplification. Real-time polymerase chain reaction (PCR) quantification was then performed using SYBR Green technology (LightCycler; Roche Diagnostics, Meylan, France). Results were normalized to two housekeeping genes (18S and 36B4) and quantified using qBase (Roche Diagnostics).
Two-day postconfluent 3T3L1 cells were treated for 8 days with 10 μg/mL insulin with vehicle (0.1% DMSO) or the ligands as indicated. […] (B) Quantitative real-time PCR of PPARγ and adipocyte-specific fatty acid–binding protein AP2 expression levels in postconfluent 3T3-L1 cells treated with the ligands for 24 hr.

[6] = biological target: T1, PPARγ; assay: HGELN-PPARγ stable reporter cell luciferase assay; settings: HGELN-PPARγ cells; for activation of PPARγ (luciferase): relative to 100 nM rosiglitazone
Procedure: as §1

[7] = biological target: T3, ERα (Homo sapiens, UniProt P03372); assay: HGELN-ERα stable reporter cell luciferase assay; settings: for ranking order of estrogenic potency, ERα: HELN-ERα cell line; for agonistic activity toward ERα (luciferase): HGELN-ERα cells, relative to 10 nM E2; for ERα versus ERβ selectivity: HGELN-ERα vs HGELN-ERβ cells
T3 construct: expressed in transfected cells; host or cells: HGELN (HeLa-derived) cells, stably transfected
T3 sequence (P03372 1-595): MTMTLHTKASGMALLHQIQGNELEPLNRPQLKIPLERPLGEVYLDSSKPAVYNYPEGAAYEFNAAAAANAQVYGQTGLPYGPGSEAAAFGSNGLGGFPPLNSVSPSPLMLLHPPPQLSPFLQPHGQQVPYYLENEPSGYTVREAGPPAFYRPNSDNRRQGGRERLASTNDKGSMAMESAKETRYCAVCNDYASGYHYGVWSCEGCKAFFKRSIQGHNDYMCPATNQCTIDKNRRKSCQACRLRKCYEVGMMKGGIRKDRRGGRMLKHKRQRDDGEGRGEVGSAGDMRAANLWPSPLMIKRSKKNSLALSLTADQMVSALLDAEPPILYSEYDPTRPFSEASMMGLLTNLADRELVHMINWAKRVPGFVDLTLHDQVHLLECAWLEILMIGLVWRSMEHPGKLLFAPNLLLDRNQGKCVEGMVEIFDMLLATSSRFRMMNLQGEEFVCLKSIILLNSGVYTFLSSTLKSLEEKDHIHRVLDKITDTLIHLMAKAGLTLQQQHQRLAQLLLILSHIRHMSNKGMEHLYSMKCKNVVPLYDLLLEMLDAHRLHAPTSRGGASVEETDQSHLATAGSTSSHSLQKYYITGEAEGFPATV
Procedure: as §1

T2 sequence (Q92731 whole entry): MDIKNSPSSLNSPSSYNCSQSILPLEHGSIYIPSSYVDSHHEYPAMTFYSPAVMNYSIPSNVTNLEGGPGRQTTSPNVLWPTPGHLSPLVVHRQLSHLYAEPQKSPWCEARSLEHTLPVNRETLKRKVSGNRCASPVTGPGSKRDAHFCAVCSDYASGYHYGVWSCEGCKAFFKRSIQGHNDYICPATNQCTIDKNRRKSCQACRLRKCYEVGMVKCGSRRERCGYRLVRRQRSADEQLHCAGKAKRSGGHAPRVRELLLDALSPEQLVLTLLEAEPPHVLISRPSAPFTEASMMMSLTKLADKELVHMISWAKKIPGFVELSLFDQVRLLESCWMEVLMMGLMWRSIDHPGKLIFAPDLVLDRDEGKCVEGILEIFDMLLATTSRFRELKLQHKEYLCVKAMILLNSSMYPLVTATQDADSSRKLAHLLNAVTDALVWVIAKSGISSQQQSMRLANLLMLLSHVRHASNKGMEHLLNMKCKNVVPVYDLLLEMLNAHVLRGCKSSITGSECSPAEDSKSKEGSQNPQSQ

Row | Compound | agonistic activity toward ERβ (luciferase) [4] | ranking order of estrogenic potency, ERβ [4] | ranking order of estrogenic potency, ERα [7] | agonistic activity toward ERα (luciferase) [7] | ranking of ability to activate PPARγ [6] | induction of adipogenesis (Oil Red O staining) [2] | activation of PPARγ (luciferase) [6] | other results
1 | CN(CCOc1ccc(CC2SC(=O)NC2=O)cc1)c1ccccn1 (centres unmarked) [rosiglitazone, reference compound] |  |  |  |  |  | strongly induced adipogenesis |  | activation of zebrafish PPARγ (transient transfection) [1]: completely inactive
2 | CC(C)(c1cc(Cl)c(O)c(Cl)c1)c1cc(Cl)c(O)c(Cl)c1 [TCBPA, 2,2-bis(3,5-dichloro-4-hydroxyphenyl)propane] | partially activated |  |  |  |  | induced adipogenesis | partially activating PPARγ | activation of zebrafish PPARγ (transient transfection) [1]: activated; activation of human PPARγ (transient transfection) [3]: activators; AP2 expression level compared with rosiglitazone [5]: much lesser extent
3 | CC(C)(c1ccc(O)cc1)c1ccc(O)cc1 [BPA, bisphenol A] | almost full agonistic activity |  |  | almost full agonistic activity; also recorded: highest transactivation efficiency |  |  | failed to activate; also recorded: absence of significant interaction | 

Further lines, with some results ahead:

Row | agonistic activity toward ERβ (luciferase) [4] | ranking order of estrogenic potency, ERβ [4] | ranking order of estrogenic potency, ERα [7] | agonistic activity toward ERα (luciferase) [7] | ranking of ability to activate PPARγ [6] | Compound | induction of adipogenesis (Oil Red O staining) [2] | activation of PPARγ (luciferase) [6] | other results
4 |  | monoBBPA > diBBPA > triBBPA | monoBBPA > diBBPA > triBBPA | highest transactivation efficiency | TBBPA = triBBPA > diBBPA >>> monoBBPA | 3-MonobromoBPA [monoBBPA] |  |  | ERα versus ERβ selectivity [7]: slight ERα selectivity
5 | little effect | no estrogenic activity at all |  |  |  | CC(C)(c1cc(Br)c(O)c(Br)c1)c1cc(Br)c(O)c(Br)c1 [TBBPA, 2,2-bis(3,5-dibromo-4-hydroxyphenyl)propane] | induced adipogenesis |  | adipogenic action upon co-treatment with PPARγ antagonist CD5477 ([2]; co-treatment with CD5477): inhibited the adipogenic action
6 |  | monoBBPA > diBBPA > triBBPA | monoBBPA > diBBPA > triBBPA | highest transactivation efficiency | TBBPA = triBBPA > diBBPA >>> monoBBPA | 3,3´-dibromoBPA [diBBPA] |  |  | ERα versus ERβ selectivity [7]: slight ERα selectivity
7 |  | monoBBPA > diBBPA > triBBPA | monoBBPA > diBBPA > triBBPA |  | TBBPA = triBBPA > diBBPA >>> monoBBPA | 3,3´,5-tribromoBPA [triBBPA] |  | highest potency | 

From paper PMC3230400, “Peroxisome Proliferator-Activated Receptor γ Is a Target for Halogenated Analogs of Bisphenol A” (Environmental Health Perspectives, 2011)
